# Key:
# Karpas-299 cells = experiment: sPD-L1 ELISA of supernatants of Karpas-299 cells treated with protease inhibitors; assay type: cell-based; conditions: for sPD-L1 production with increasing concentrations: Karpas-299, 1 MM-10 MM cells/ml, aderbasib 320 pM to 32 mM, FIG. 4F
# Method: (§1) Several tumor cell lines were treated with PBS (placebo) or with various protease inhibitors, including matrix metalloprotease inhibitors TAPI-2 and TAPI-0, aspartic protease inhibitor Pepstatin, cysteine protease inhibitor E-64, serine protease inhibitor Aprotinin, combinations of these inhibitors, and an array of other matrix metalloprotease inhibitors. Cell supernatants were queried for sPD-L1 by ELISA as published elsewhere (Frigola et la., supra). In brief, paired mouse IgG2 monoclonal antibodies against extracellular rhB7-H1 were utilized in a capture-detection plate assay using biotinylation and HRP-streptavidin detection. […] Concentrations were determined by optical density measurements along a known standard curve of rhB7-H1. Karpas-299 cells were incubated at 10 MM cells per ml in cell culture media (RPMI plus FBS plus Penicillin/Streptomycin plus buffering reagents) over 24 hours in the presence of 1 μl/100 μl DMSO or PBS (placebo), TAPI-2 at 278 μM, Pepstatin at 206.5 μM, E-64 at 185 μM, or Aprotinin at 220 μM, or a combination of the above materials at various concentrations. […] All statistical analyses were performed using R! software. Two-sided, unpaired Student t tests assessed statistical differences in experimental groups except where otherwise indicated. P values indicate comparison to vehicle control groups. P<0.05 was considered statistically significant.
# Subsequent studies were conducted in which Karpas-299 cells were incubated with different matrix metalloprotease inhibitors with varying specificities. For example, Karpas-299 cells were incubated at 10 MM cells per ml in cell culture media over 24 hours in the presence of 1 μl/100 μl DMSO (control), 50 μM TAPI-2, 50 μM TAPI-0, 50 μM GI254023X, 5 μM Ro 32-3555, 5 μM ARP 101, 50 μM UK 370106, 500 pM MMP-9 inhibitor I, 5 μM Doxycycline, or some combination thereof.
# Aderbasib is a selective inhibitor of matrix metalloproteases ADAM10 and ADAM17. Karpas-299 cells were incubated at 1 MM-10 MM cells/ml and treated for 24 hours with concentrations of aderbasib ranging from 320 pM to […].
# (§2) Karpas-299 lymphoma cells producing sB7-H1 were cultured with an array of protease inhibitors. Supernatants from these cultures were isolated and analyzed for sB7H1 concentration by ELISA. Subsequently, activated human CD8+ T cells were cultured with recombinant sB7H1 protein and cell survival was measured at 24 hours. CD8+ T cells also were cultured with sB7H1-rich tumor cell line supernatants versus sB7H1-depleted supernatants over 48 hours in the presence of placebo, low dose (10 nM), or high dose (1 μM) anti-PD-1 antibody pembrolizumab, and cell survival was measured.
# [1] = system: Dul45 prostate cancer cells; experiment: sPD-L1 ELISA of supernatants of Dul45 prostate cancer cells; assay type: cell-based; conditions: FIG. 4C
# Method: as §1
# Further studies were conducted using different types of cells.
# [2] = system: A786-0 (renal cell carcinoma) cells; experiment: sPD-L1 ELISA of supernatants of A786-0 cells treated with protease inhibitors; assay type: cell-based; conditions: n=5, FIG. 4E
# Method: Tumor cells were treated with PBS (placebo) or with various protease inhibitors, including MMP inhibitors TAPI-2 and TAPI-0, aspartic protease inhibitor Pepstatin, cysteine protease inhibitor E-64, serine protease inhibitor Aprotinin, combinations of these inhibitors, and an array of other MMP inhibitors. Cell supernatants were queried for sPD-L1 by ELISA. FIG. 4A, Karpas-299 (lymphoma) cells were treated with the indicated protease inhibitors. FIG. 4B, A786-0 (renal cell carcinoma) cells were treated with the indicated protease inhibitors. FIG. 4C, Dul45 cells were treated with the indicated protease inhibitors. FIG. 4D, Mel-B7H1 (transgenic melanoma) cells were treated with the indicated protease or metalloprotease inhibitors. FIG. 4E is a graph plotting sPD-L1 production induced by interferon treatment or high cell titer in A786-0 cells. Cells grown at 1 MM/ml in control DMSO produced little sPD-L1. […] FIG. 4F is a graph plotting the amount of sPD-L1 in supernatants of Karpas-299 cells treated with control or with varying concentrations of the ADAM10/17 inhibitor aderbasib.
# Several tumor cell lines were treated with PBS (placebo) or with various protease inhibitors, including matrix metalloprotease inhibitors TAPI-2 and TAPI-0, aspartic protease inhibitor Pepstatin, cysteine protease inhibitor E-64, serine protease inhibitor Aprotinin, combinations of these inhibitors, and an array of other matrix metalloprotease inhibitors. Cell supernatants were queried for sPD-L1 by ELISA as published elsewhere (Frigola et la., supra). In brief, paired mouse IgG2 monoclonal antibodies against extracellular rhB7-H1 were utilized in a capture-detection plate assay using biotinylation and HRP-streptavidin detection. […] Concentrations were determined by optical density measurements along a known standard curve of rhB7-H1. […] Two-sided, unpaired Student t tests assessed statistical differences in experimental groups except where otherwise indicated. […]
# CD8+ T cells [3] = experiment: CD8+ T cell survival with Karpas-299 supernatants, TMRE/Annexin-V flow cytometry; assay type: cell-based, human
# Method: CD8+ T cells isolated from healthy subjects were incubated in the presence of 50% Karpas-299 supernatants of varying types and 50% fresh cell culture media. Supernatant types included sPD-L1-rich supernatants from Karpas-299 cells, supernatants from Karpas-299 cells treated with TAPI-0 to prevent sPL-L1 production, supernatants from Karpas-299 cells “spiked” with TAPI-0 after sPD-L1 production, and fresh culture media controls (FIG. 5C). Karpas-299 cell supernatants were generated by incubation at 10 MM cells/ml for 48 hours. TMRE/Annexin-V binding was measured by flow cytometry to assess the level of CD8+ T cell survival. Antibodies and reagents used for flow cytometry were Annexin-V-FITC, anti-mouse CD16/32 (BioLegend; San Diego, Calif.); anti-PD-L1, mouse isotype control (eBioScience/Thermo Fisher Scientific; Waltham, Mass.), TMRE-PE (Abcam; Cambridge, Mass.), BD Wash/Perm (Becton Dickenson; Waltham, Mass.). Flow cytometry was performed and analyzed using FlowJo (Treestar; Ashland, Oreg.).
# CD8+ T cells were incubated with supernatants from Karpas-299 cells as above, plus varying doses of several anti-PD-1 antibodies.
# as §2
# PD-L1 mRNA = PD-L1 mRNA expression by RT-PCR in Karpas-299 cells; assay type: cell-based; conditions: Karpas-299, 50 μM TAPI-0, 24 hours; data not shown
# CD8+ T cells [4] = experiment: CD8+ T cell survival with sPD-L1-rich Karpas-299 supernatant, with or without checkpoint inhibitors (trypan blue); assay type: cell-based, human; conditions: with sPD-L1-rich Karpas-299 supernatant, therapeutic doses of checkpoint inhibitor, n=3, FIG. 5B
# Method: FIG. 5A is a graph plotting survival of CD8+ human T cells cocultured in the presence of PBS control or 5 μg/ml or 10 μg/ml recombinant sPD-L1. […] FIG. 5B is a graph plotting survival of CD8+ human T cells cultured in the presence of PBS control or sPD-L1-rich Karpas-299 cell line supernatant, in the presence or absence of PD1 or PD-L1 checkpoint inhibitors. Cell survival was measured by trypan blue staining. […] FIGS. 5C and 5D are a series of flow cytometry plots indicating survival of CD8+ T cells treated with various cell extracts and an anti-PD-1 antibody (nivolumab or pembrolizumab) or an anti-PD-L1 antibody (atezolizumab). FIG. 5C, CD8+ T cells isolated from healthy subjects were incubated with sPD-L1-rich supernatants from Karpas-299 cells, supernatants from Karpas-299 cells treated with inhibitor TAPI-0, supernatants from Karpas-299 cells “spiked” with TAPI-0 after isolation, and controls (top), and TMRE uptake/Annexin-V binding was measured by flow cytometry to assess the level of CD8+ T cell survival. CD8+ T cells also were incubated with supernatants from Karpas-299 cells, plus the indicated doses of anti-PD-1 and anti-PD-L1 antibodies (bottom). FIG. 5D, CD8+ T cells were incubated with PD-L1-rich supernatants from A787-0 RCC cells and the indicated concentrations of pembrolizumab. […]
# A549 cells [5] = experiment: PD-L1 flow cytometry of A549 cells; assay type: cell-based; conditions: vs DMSO, FIGS. 7C, 7D
# Method: FIGS. 7A and 7B are flow cytometry plots and graphs showing that cell PD-L1 expression is restored by treatment with an inhibitor of ADAM10 and/or ADAM17, and is decreased by treatment with exogenous recombinant ADAM10 or ADAM17. Cells were incubated in the presence of the indicated treatments, and PD-L1 flow cytometry was performed.
# A549 cells [6] = experiment: sPD-L1 in supernatants of A549 cells treated with exogenous ADAM17; assay type: cell-based; conditions: exogenous ADAM17 vs PBS control, FIG. 4G
molecule,measurement,setting,value
COC(=O)N1CC2(CC2)C[C@H](C(=O)NO)[C@H]1C(=O)N1CCN(c2ccccc2)CC1 [aderbasib],sPD-L1 production with increasing concentrations,Karpas-299 cells; 24 hours,decreasing concentrations of sPD-L1
same,sPD-L1 production with increasing concentrations,"Karpas-299 cells; 24 hours, listed as Aderbasib",reduces sPD-L1 production
same,sPD-L1 secretion versus controls,[1],significantly reduced
same,mean sPD-L1 production,"[2]; A786-0 at 10 MM/ml, control DMSO 886 pg/ml, p=0.00018",276 pg/mL
CC(C)C[C@H](CC(=O)NO)C(=O)N[C@@H](Cc1ccc2ccccc2c1)C(=O)N[C@@H](C)C(N)=O [TAPI-0],rate of apoptosis of CD8+ T cells,"CD8+ T cells [3]; 50% supernatant from TAPI-0 treated Karpas-299 cells and 50% fresh media, FIG. 5C",2.46%
same,CD8+ T cell death,CD8+ T cells [3]; Karpas-299 supernatants with added TAPI-0,did not induce cell death
same,PD-L1 mRNA expression,PD-L1 mRNA,without reducing PD-L1 mRNA expression
same,Karpas-299 production of sB7H1,"Karpas-299 cells; Example 3, supernatants by ELISA, p<0.0001",inhibited
same,secretion of sPD-L1,"Karpas-299 cells; Karpas-299, 10 MM cells per ml, 24 hours, 50 μM TAPI-0, vs DMSO, FIG. 4A, p=3.97×10^−7",reduced the secretion of sPD-L1
same,sPD-L1 secretion versus controls,[1],significantly reduced
same,mean sPD-L1 production,"[2]; A786-0 at 1 MM/ml, interferon plus TAPI-0, interferon alone 923 pg/ml",0 pg/mL
"nivolumab: anti-PD-1 antibody, trade name OPDIVO",survival of CD8+ T cells,"CD8+ T cells [3]; with Karpas-299 supernatant, antibody at 1 μM, 1 μM pembrolizumab among the most effective, FIG. 5C",increased the survival
same,rescue of CD8+ T cell survival,CD8+ T cells [4],did not rescue
"ADAM17 (TACE): commercially-obtained, recombinant form of ADAM17 (TACE)",PD-L1 expression (flow cytometry),A549 cells [5],decreased
same,detectable sPD-L1 secreted,A549 cells [6],higher amounts
